Assay results: article PMC12502323, “Discovery of small molecules with anthelmintic potential in the Medicines for Malaria Venture’s COVID and Global Health Priority Boxes using an infrared-based assay for Caenorhabditis elegans motility” (BMC Research Notes, 2025)
“And” between values parts separate entries of the source, which are not always exact repeats. Identical values can stand only once. Like-named read-outs stand apart in the source and are kept apart here.

Columns and labels:
Caenorhabditis elegans [1] = test: Primary screen, infrared-based (WMicroTracker ONE) C. elegans L4 motility assay at 40 µM; format: cell-based, Caenorhabditis elegans (Bristol N2); conditions: primary screen at 40 µM; for C. elegans Mean motility vs. DMSO control (%): C. elegans L4; for C. elegans NOTES (HIT): hit if motility < 25%
Protocol: (§1) Methods to cultivate C. elegans (Bristol N2) and synchronize growth to the L4 stage were as described. WMicroTracker ONE (Phylumtech, Argentina) detects movement by measuring the scattering of infrared light beams that are projected into each well of a microtiter plate (two 880 nm beams/well in a 96w plate).
(§2) Synchronized C. elegans L4 were detached from agar and collected in M9 buffer. Worms were centrifuged for 1 min at 1,900 g and washed in S medium to decrease the concentration of E. coli OP50 that might interfere with infrared detection. Control and assay compounds (1 µL) in DMSO (Fisher Scientific, Cat# BP231-100) were spotted into each well of a clear, flat-bottomed 96-well polystyrene plate (Fisherbrand, Cat# FB012931). DMSO (1%) was used as the negative control. Approximately 70 L4 in 100 µL S medium were added per well. First pass screens employed 40 µM compound, and motility was measured every 20 min for 24 h in the WMicroTracker ONE reader in which the temperature was 25 ± 1 °C. Motility was normalized relative to the DMSO controls. Hits were defined as compounds that decreased motility to ≤ 25% of that in DMSO control worms.

Caenorhabditis elegans [2] = test: Concentration response C. elegans L4 motility assay (WMicroTracker ONE), EC50; format: cell-based, Caenorhabditis elegans (Bristol N2); conditions: read-out: EC50 (motility)
Protocol: as §1, §2
For potent compounds, concentration response assays (nine concentrations: 0.005 µM to 40 or 100 µM) were conducted to measure the half-maximal effective concentration (EC50). Compounds were serially diluted in DMSO using 96-well, v-bottomed polypropylene dilution plates (ThermoFisher Scientific, Cat#: 249944) and 1 µL aliquots spotted into each well of the assay plates. Motility was measured as described above. Prism GraphPad, Version 8.0 (GraphPad Software, San Diego, CA) was used to calculate EC50 values using a non-linear sigmoidal four parameter logistic curve.

[3] = HEK293 cytotoxicity assay (resazurin); format: cell-based, Human; conditions: human
Protocol: (§3) Potent compounds were also evaluated for cytotoxicity against HEK293 cells. Cells were cultured at 37 °C and 5% in Dulbecco’s Modified Eagle Medium (DMEM; Gibco, Cat#: 11965-092) containing 10% heat-inactivated fetal bovine serum (FBS; Omega Scientific Inc., Cat#: FB02) and 1% penicillin-streptomycin (ThermoFisher Scientific, Cat#: 15140122), and then sub-cultured when 60–80% confluent. Cells were detached with 0.05% trypsin/EDTA (ThermoFisher Scientific, Cat#: 25300054) and centrifuged for 5 min at 1,900 g.
(§4) Screens were performed over 11 compound concentrations (0.00007–40 µM) that had been prepared in DMSO. Aliquots (1 µL) were spotted into each well of a clear-bottomed, 96-well, polystyrene assay plate (Fisher Scientific, Cat#: FB012931). Approximately 20,000 HEK293 cells in 99 µL of the above supplemented DMEM were then added to each well. After 46 h at 37 °C and 5% CO2, 20 µL 0.5 mM resazurin (ThermoFisher Scientific, Cat#: B21187.03) were added and the incubation continued for 2 h at 37 °C [27]. Fluorescence was measured in a 2104 EnVision Multilabel Plate Reader (PerkinElmer) at 560 and 590 nm excitation and emission wavelengths, respectively. Raw data were exported from the EnVision Workstation software (version 1.13.3009.1401; PerkinElmer) into Prism GraphPad, and the half-maximal cytotoxic concentration (CC50) values were calculated using a non-linear regression curve.

HEK293 cells = test: HEK293 cytotoxicity assay (resazurin); format: cell-based, Human
Protocol: as §3, §4

C. elegans L4 = test system: C. elegans L4; set-up: method as in PMID 38486232; conditions: GHPB screen, WMicroTracker ONE; cited from earlier work
Haemonchus contortus = test system: Haemonchus contortus; set-up: method as in PMID 38486232; conditions: GHPB screen, WMicroTracker ONE; cited from earlier work
C. elegans = conditions: read-out: EC50 previously recorded, cited from earlier work
[4] = Caenorhabditis elegans, C. elegans L4, after 12 h
[5] = HEK293 cell viability after 48 h, read-out: CC50

Question: Which results are given for CCOCn1c(-c2ccc(Cl)cc2)c(C#N)c(Br)c1C(F)(F)F [chlorfenapyr]?
Answer: C. elegans Mean motility vs. DMSO control (%) (Caenorhabditis elegans [1]): 0.26%; C. elegans NOTES (HIT) (Caenorhabditis elegans [1]): HIT; EC50 (Caenorhabditis elegans [2]; [4]): 1650 ± 449 nM; CC50 at 48 h [3, 5]: 20900 ± 7340 nM

Question: Which “C. elegans Mean motility vs. DMSO control (%)” value (Caenorhabditis elegans [1]) does the source give for O=C(Nc1ccc(Cl)c(C(F)(F)F)c1)Nc1ccc(Cl)c(C(F)(F)F)c1 [flucofuron] here?
Answer: 20.31%

Question: What about the “C. elegans NOTES (HIT)” value (Caenorhabditis elegans [1]) of the same molecule?
Answer: HIT

Question: What about the EC50 (Caenorhabditis elegans [2]; C. elegans L4, after 24 h) of the same molecule?
Answer: 20600 ± 10700 nM

Question: And the CC50 (HEK293 cells; HEK293 cell viability after 48 h)?
Answer: 453 ± 331 nM

Question: What about the “hit in screen against C. elegans L4” value (C. elegans L4) of the same molecule?
Answer: hit only against the parasite

Question: And the “hit in screen against exsheathed L3 of Haemonchus contortus” value (Haemonchus contortus)?
Answer: hit

Question: Which results are given for CC(F)c1ncnc(NCCc2ccc(OC(F)(F)F)cc2)c1Cl (stereo not shown) [flufenerim]?
Answer: C. elegans Mean motility vs. DMSO control (%) (Caenorhabditis elegans [1]): 0.26%; C. elegans NOTES (HIT) (Caenorhabditis elegans [1]): HIT; EC50 (Caenorhabditis elegans [2]; C. elegans L4, after 12 h): 211 ± 34 nM; hit in screen against C. elegans L4 (C. elegans L4): hit; hit in screen against exsheathed L3 of Haemonchus contortus (Haemonchus contortus): hit

Question: With COc1ccc2c(c1)c(CC(=O)O)c(C)n2C(=O)c1ccc(Cl)cc1 [indomethacin, reference compound] as the molecule, how does the “C. elegans Mean motility vs. DMSO control (%)” value (Caenorhabditis elegans [1]) read?
Answer: 18.64%

Question: And the “C. elegans NOTES (HIT)” value (Caenorhabditis elegans [1])?
Answer: HIT

Question: And the EC50 (Caenorhabditis elegans [2]; Caenorhabditis elegans, C. elegans L4, after 24 h)?
Answer: 23200 ± 14100 nM

Question: What about the CC50 at 48 h ([3]; HEK293 cells, HEK293 cell viability after 48 h, read-out: CC50) of the same molecule?
Answer: > 100000 nM

Question: And the “cytotoxicity to HEK293 cells (in words)” value (HEK293 cells; HEK293 cells)?
Answer: not cytotoxic

Question: With CO/N=C1\C[C@]2(C[C@@H]3C[C@@H](C/C=C(\C)C[C@@H](C)/C=C/C=C4\CO[C@@H]5[C@H](O)C(C)=C[C@@H](C(=O)O3)[C@]45O)O2)O[C@H](/C(C)=C/C(C)C)[C@H]1C [moxidectin, reference compound] as the molecule, how does the “C. elegans Mean motility vs. DMSO control (%)” value (Caenorhabditis elegans [1]) read?
Answer: 0.28%

Question: And the “C. elegans NOTES (HIT)” value (Caenorhabditis elegans [1])?
Answer: HIT

Question: What about the EC50 (Caenorhabditis elegans [2]; Caenorhabditis elegans, 1 h) of the same molecule?
Answer: 128 ± 45 nM

Question: What about the CC50 at 48 h [3] of the same molecule?
Answer: 13300 ± 9470 nM

Question: Which “C. elegans Mean motility vs. DMSO control (%)” value (Caenorhabditis elegans [1]) does the source give for CO[C@H]1C[C@H](O[C@@H]2/C(C)=C/C[C@@H]3C[C@@H](C[C@]4(CC[C@H](C)[C@@H](C5CCCCC5)O4)O3)OC(=O)[C@@H]3C=C(C)/C(=N/O)[C@H]4OC/C(=C\C=C\[C@@H]2C)[C@]43O)O[C@@H](C)[C@@H]1O [selamectin, reference compound] here?
Answer: 2.31%

Question: And the “C. elegans NOTES (HIT)” value (Caenorhabditis elegans [1])?
Answer: HIT

Question: And the EC50 (Caenorhabditis elegans [2]; Caenorhabditis elegans, C. elegans L4, after 3 h)?
Answer: 722 ± 555 nM

Question: And the CC50 at 48 h [3, 5]?
Answer: 9880 ± 4260 nM

Question: Which results are given for CCc1nn(C)c(C(=O)NCc2ccc(Oc3ccc(C)cc3)cc2)c1Cl [tolfenpyrad]?
Answer: C. elegans Mean motility vs. DMSO control (%) (Caenorhabditis elegans [1]): 0.26%; C. elegans NOTES (HIT) (Caenorhabditis elegans [1]): HIT; EC50 (Caenorhabditis elegans [2]; [4]): 950 ± 256 nM; CC50 at 48 h [3, 5]: 33800 ± 31400 nM; EC50 (C. elegans; after 24 h): 200 ± 40 nM

Question: For ivermectin [reference compound], which “C. elegans Mean motility vs. DMSO control (%)” value (Caenorhabditis elegans [1]; listed as MMV672931) is on record?
Answer: 3.37% and 9.96%

Question: What about the “C. elegans NOTES (HIT)” value (Caenorhabditis elegans [1]) of the same molecule?
Answer: HIT

Question: What about the EC50 (Caenorhabditis elegans [2]; C. elegans L4, after 1 h) of the same molecule?
Answer: 130 ± 51 nM

Question: What about the EC50 (C. elegans; after 90 min) of the same molecule?
Answer: 190 ± 10 nM
